# Measurements published in patent publication US9758492B2, “IDO inhibitors” (Bristol-Myers Squibb Company, priority 2013, dated 2017).
# Target: IDO (Homo sapiens, UniProt P14902)
# Experiment: LLE_IDO_ABS_DR (IDO assay)
# Sequence of IDO (P14902 whole entry): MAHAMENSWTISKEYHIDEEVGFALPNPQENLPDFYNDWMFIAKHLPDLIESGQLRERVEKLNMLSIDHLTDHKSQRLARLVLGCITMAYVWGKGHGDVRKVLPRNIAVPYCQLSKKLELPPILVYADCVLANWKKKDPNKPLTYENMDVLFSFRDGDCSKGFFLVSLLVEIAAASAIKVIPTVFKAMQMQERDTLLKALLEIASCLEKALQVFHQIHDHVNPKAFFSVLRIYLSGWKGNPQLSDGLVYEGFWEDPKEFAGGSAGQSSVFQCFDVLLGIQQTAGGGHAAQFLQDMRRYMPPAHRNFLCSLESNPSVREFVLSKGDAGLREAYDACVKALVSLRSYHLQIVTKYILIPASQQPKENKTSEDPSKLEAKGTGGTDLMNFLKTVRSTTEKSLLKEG
row,IC50 [nM],Compound
1,1270,"CC(C)CN(c1ccc(-c2ccccc2C(=O)O)cc1NC(=O)Nc1ccccc1C(F)(F)F)C1CCCCC1 [Example 162, 4′-(cyclohexyl (isobutyl)amino)-3′-(3-(2-(trifluoromethyl)phenyl)ureido)biphenyl-2-carboxylic acid]"
2,1030,"CC(C)CN(c1ccc(-c2cc(F)ccc2C(=O)O)cc1NC(=O)Nc1ccccc1C(F)(F)F)C1CCCCC1 [Example 163, 4′-(cyclohexyl (isobutyl)amino)-5-fluoro-3′-(3-(2-(trifluoromethyl)phenyl)ureido) biphenyl-2-carboxylic acid]"
3,5.4,"Cc1ccc(NC(=O)Nc2cc(C3=C(c4nnn[nH]4)CCC3)ccc2N(CC(C)C)CC(C)C)cc1 [Example 164, 1-(5-(2-(1H-tetrazol-5-yl)cyclopent-1-enyl)-2-(diisobutylamino)phenyl)-3-p-tolylurea]"
4,10,"CCCN(c1ccc(-c2ccccc2C(=O)O)cc1NC(=O)Nc1ccc(C)cc1)C1CCCC1 [Example 165, 4′-(cyclopentyl(propyl)amino)-3′-(3-p-tolylureido)biphenyl-2-carboxylic acid]"
5,20,"CCCN(c1ccc(-c2cc(F)ccc2C(=O)O)cc1NC(=O)Nc1ccc(C)cc1)C1CCCC1 [Example 166, 4′-(cyclopentyl(propyl)amino)-5-fluoro-3′-(3-p-tolylureido) biphenyl-2-carboxylic acid]"
6,40,"CCCN(c1ccc(-c2cc(F)ccc2C(=O)O)cc1NC(=O)Nc1ccccc1F)C1CCCC1 [Example 167, 4′-(cyclopentyl(propyl)amino)-5-fluoro-3′-(3-(2-fluorophenyl)ureido)biphenyl-2-carboxylic acid]"
7,30,"CCCN(c1ccc(-c2ccccc2C(=O)O)cc1NC(=O)Nc1ccccc1F)C1CCCC1 [Example 168, 4′-(cyclopentyl(propyl)amino)-3′-(3-(2-fluorophenyl)ureido) biphenyl-2-carboxylic acid]"
8,4.55,"CCCN(c1ccc(-c2ccccc2-c2nnn[nH]2)cc1NC(=O)Nc1ccc(C)cc1)C1CCCC1 [Example 169, 1-(4-(cyclopentyl(propyl)amino)-2′-(1H-tetrazol-5-yl)biphenyl-3-yl)-3-p-tolylurea]"
9,5.68,"CCCN(c1ccc(-c2ccccc2-c2nnn[nH]2)cc1NC(=O)Nc1ccccc1F)C1CCCC1 [Example 170, 1-(4-(cyclopentyl(propyl)amino)-2′-(1H-tetrazol-5-yl)biphenyl-3-yl)-3-(2-fluorophenyl)urea]"
10,20,"Cc1ccc(NC(=O)Nc2cc(-c3cc(F)ccc3C(=O)O)ccc2N(CC(C)C)C2CCCC2)cc1 [Example 171, 4′-(cyclopentyl(isobutyl)amino)-5-fluoro-3′-(3-p-tolylureido)biphenyl-2-carboxylic acid]"
11,10,"Cc1ccc(NC(=O)Nc2cc(-c3ccccc3C(=O)O)ccc2N(CC(C)C)C2CCCC2)cc1 [Example 172, 4′-(cyclopentyl(isobutyl)amino)-3′-(3-p-tolylureido)biphenyl-2-carboxylic acid]"
12,10,"CC(C)CN(c1ccc(-c2ccccc2C(=O)O)cc1NC(=O)Nc1ccccc1F)C1CCCC1 [Example 173, 4′-(cyclopentyl(isobutyl)amino)-3′-(3-(2-fluorophenyl)ureido) biphenyl-2-carboxylic acid]"
13,9.92,"Cc1ccc(NC(=O)Nc2cc(-c3ccccc3-c3nnn[nH]3)ccc2N(CC(C)C)C2CCCC2)cc1 [Example 174, 1-(4-(cyclopentyl (isobutyl)amino)-2′-(1H-tetrazol-5-yl)biphenyl-3-yl)-3-p-tolylurea]"
14,4.36,"CC(C)CN(c1ccc(-c2ccccc2-c2nnn[nH]2)cc1NC(=O)Nc1ccccc1F)C1CCCC1 [Example 175, 1-(4-(cyclopentyl (isobutyl)amino)-2′-(1H-tetrazol-5-yl)biphenyl-3-yl)-3-(2-fluorophenyl)urea]"
15,7.86,"CC(C)CN(c1ccc(-c2cc(F)ccc2C(=O)O)cc1NC(=O)Nc1ccccc1F)C1CCCC1 [Example 176, 4′-(cyclopentyl(isobutyl)amino)-5-fluoro-3′-(3-(2-fluorophenyl)ureido) biphenyl-2-carboxylic acid]"
16,9.59,"CCCCN(c1ccc(-c2ccccc2C(=O)O)cc1NC(=O)Nc1ccc(C)cc1)C1CCCCC1 [Example 177, 4′-(butyl(cyclohexyl)amino)-3′-(3-(p-tolyl)ureido)-[1,1′-biphenyl]-2-carboxylic acid]"
17,5.49,"CCCCN(c1ccc(-c2cc(F)ccc2C(=O)O)cc1NC(=O)Nc1ccc(C)cc1)C1CCCCC1 [Example 178, 4′-(butyl(cyclohexyl)amino)-5-fluoro-3′-(3-(p-tolyl)ureido)-[1,1′-biphenyl]-2-carboxylic acid]"
18,50,"Cc1ccc(NC(=O)Nc2cc(-c3ccccc3-c3nnn[nH]3)ccc2N(C)CC(C)C)cc1 [Example 179, 1-(4-(isobutyl(methyl)amino)-2′-(1H-tetrazol-5-yl)-[1,1′-biphenyl]-3-yl)-3-(p-tolyl)urea]"

row,IC50 [nM],Compound
1,230,"Cc1ccc(NC(=O)Nc2cc(-c3ccccc3C(=O)O)ccc2N(C)CC(C)C)cc1 [Example 180, 4′-(isobutyl(methyl)amino)-3′-(3-(p-tolyl)ureido)-[1,1′-biphenyl]-2-carboxylic acid]"
2,270,"Cc1ccc(NC(=O)Nc2cc(-c3cc(F)ccc3C(=O)O)ccc2N(C)CC(C)C)cc1 [Example 181, 5-fluoro-4′-(isobutyl(methyl)amino)-3′-(3-(p-tolyl)ureido)-[1,1′-biphenyl]-2-carboxylic acid]"
3,50,"Cc1ccc(NC(=O)Nc2cc(-c3cc(F)ccc3C(=O)O)ccc2N(CC(C)C)C2CCC2)cc1 [Example 182, 4′-(cyclobutyl(isobutyl)amino)-5-fluoro-3′-(3-(p-tolyl)ureido)-[1,1′-biphenyl]-2-carboxylic acid]"
4,20,"Cc1ccc(NC(=O)Nc2cc(-c3ccccc3C(=O)O)ccc2N(CC(C)C)C2CCC2)cc1 [Example 183, 4′-(cyclobutyl(isobutyl)amino)-3′-(3-(p-tolyl)ureido)-[1,1′-biphenyl]-2-carboxylic acid]"
5,10,"Cc1ccc(NC(=O)Nc2cc(-c3ccccc3-c3nnn[nH]3)ccc2N(CC(C)C)C2CCC2)cc1 [Example 184, 1-(4-(cyclobutyl(isobutyl)amino)-2′-(1H-tetrazol-5-yl)-[1,1′-biphenyl]-3-yl)-3-(p-tolyl)urea]"
6,2.63,"CCCN(Cc1ccccc1)c1ccc(-c2ccccc2-c2nnn[nH]2)cc1NC(=O)Nc1ccc(C)cc1 [Example 185, 1-(4-(benzyl(propyl)amino)-2′-(1H-tetrazol-5-yl)-[1,1′-biphenyl]-3-yl)-3-(p-tolyl)urea]"
7,30,"CCCN(Cc1ccccc1)c1ccc(-c2cc(F)ccc2C(=O)O)cc1NC(=O)Nc1ccc(C)cc1 [Example 186, 4′-(benzyl(propyl)amino)-5-fluoro-3′-(3-(p-tolyl)ureido)-[1,1′-biphenyl]-2-carboxylic acid]"
8,20,"CCCN(Cc1ccccc1)c1ccc(-c2ccccc2C(=O)O)cc1NC(=O)Nc1ccc(C)cc1 [Example 187, 4′-(benzyl(propyl)amino)-3′-(3-(p-tolyl)ureido)-[1,1′-biphenyl]-2-carboxylic acid]"
9,290,"Cc1ccc(NC(=O)Nc2cc(-c3ccccc3C(=O)O)ccc2N(CCC(C)C(F)(F)F)C2CCCCC2)cc1 (stereo not drawn) [Example 188, 4′-(cyclohexyl(4,4,4-trifluoro-3-methylbutyl)amino)-3′-(3-(p-tolyl)ureido)-[1,1′-biphenyl]-2-carboxylic acid]"
10,480,"Cc1ccc(NC(=O)Nc2cc(-c3cc(F)ccc3C(=O)O)ccc2N(CCC(C)C(F)(F)F)C2CCCCC2)cc1 (stereo not drawn) [Example 189, 4′-(cyclohexyl(4,4,4-trifluoro-3-methylbutyl)amino)-5-fluoro-3′-(3-(p-tolyl)ureido)-[1,1′-biphenyl]-2-carboxylic acid]"
11,80,"Cc1ccc(NC(=O)Nc2cc(-c3ccccc3-c3nnn[nH]3)ccc2N(CCC(C)C(F)(F)F)C2CCCCC2)cc1 (stereo not drawn) [Example 190, 1-(4-(cyclohexyl(4,4,4-trifluoro-3-methylbutyl)amino)-2′-(1H-tetrazol-5-yl)-[1,1′-biphenyl]-3-yl)-3-(p-tolyl)urea]"
12,5.79,"COCCN(Cc1ccc(Cl)cc1)c1ccc(-c2ccccc2-c2nnn[nH]2)cc1NC(=O)Nc1ccc(C)cc1 [Example 191, 1-(4-((4-chlorobenzyl)(2-methoxyethyl)amino)-2′-(1H-tetrazol-5-yl)-[1,1′-biphenyl]-3-yl)-3-(p-tolyl)urea]"
13,7.82,"COCCN(Cc1ccc(Cl)cc1)c1ccc(-c2ccccc2C(=O)O)cc1NC(=O)Nc1ccc(C)cc1 [Example 192, 4′-((4-chlorobenzyl)(2-methoxyethyl)amino)-3′-(3-(p-tolyl)ureido)-[1,1′-biphenyl]-2-carboxylic acid]"
14,4.74,"Cc1ccc(NC(=O)Nc2cc(-c3ccccc3-c3nnn[nH]3)ccc2N(CC(F)F)C2CCCCC2)cc1 [Example 194, 1-(4-(cyclohexyl(2,2-difluoroethyl)amino)-2′-(1H-tetrazol-5-yl)-[1,1′-biphenyl]-3-yl)-3-(p-tolyl)urea]"
15,4.79,"Cc1ccc(NC(=O)Nc2cc(-c3ccccc3-c3nnn[nH]3)ccc2N(CCC(F)(F)F)C2CCCCC2)cc1 [Example 195, 1-(4-(cyclohexyl(3,3,3-trifluoropropyl)amino)-2′-(1H-tetrazol-5-yl)-[1,1′-biphenyl]-3-yl)-3-(p-tolyl)urea]"
16,20,"Cc1ccc(NC(=O)Nc2cc(-c3ccccc3C(=O)O)ccc2N(CC(F)F)C2CCCCC2)cc1 [Example 196, 4′-(cyclohexyl(2,2-difluoroethyl)amino)-3′-(3-(p-tolyl)ureido)-[1,1′-biphenyl]-2-carboxylic acid]"
17,10,"Cc1ccc(NC(=O)Nc2cc(-c3ccccc3C(=O)O)ccc2N(CCC(F)(F)F)C2CCCCC2)cc1 [Example 197, 4′-(cyclohexyl(3,3,3-trifluoropropyl)amino)-3′-(3-(p-tolyl)ureido)-[1,1′-biphenyl]-2-carboxylic acid]"
18,210,"Cc1ccc(NC(=O)Nc2cc(-c3ccccc3C(=O)O)ccc2N(CCC(F)(F)F)CC(C)C)cc1 [Example 198, 4′-(isobutyl(3,3,3-trifluoropropyl)amino)-3′-(3-(p-tolyl)ureido)-[1,1′-biphenyl]-2-carboxylic acid]"
